Results reported in patent publication US20210106582A1, “COMPOUNDS AND PHARMACEUTICAL COMPOSITIONS THEREOF FOR USE IN THE TREATMENT OF FIBROTIC DISEASES” (Galapagos NV, priority 2017, published 2021).
Values joined by “and” are separate entries in the source; they are usually repeats but may differ in a detail not shown here. Equal values may be shown once.

Tests used:
Format in all cases: in vivo
[1] = test system: female C57BL/6J mice, lung fibrosis induced by radiation; assay: Radiation induced fibrosis mice model; conditions: individual animals, irradiated lung, nintedanib 60 mg/kg QD PO D1-D14
Procedure: Pneumonitis and lung fibrosis are the major radiation-induced complications following thoracic radiotherapy, which is one of the major treatment of lung and breast cancers, lymphomas and hematopoietic transplant conditioning.
The objective of this model is to evaluate the effect of a compound of the invention in lung fibrosis induced by radiation in mice. (Bickelhaupt et al., 2017)
7 weeks old (18/22 gr) female C57BL/6J mice from Charles River (France) are maintained on 12 h light/dark cycle at 22° C. with ad libidum access to tap water and food.
The test compounds are dissolved/suspended in appropriate vehicle prior to using and then kept light-free, under agitation at room temperature.
The dose volume administered is 10 mL/kg and the volume is adapted following mean body weight (BW) of the group as follows: 200 μL if mean BW<22.5 g, 250 μL if mean BW≥22.5 g; 300 μL if mean BW>27.5 g.
On day 1 of week 1, the animals are exposed at the thorax to a 17 Gray irradiation dose, under isoflurane anesthesia. […]
Body weight are recorded once a week, and on Day 14, lung function measurement under anesthesia is realized by Flexivent (Devos et al., 2017) for all groups before sacrifice.
At sacrifice on Day 14, the lungs are collected and fixed in 4% formaldehyde for 24 h before embedding in paraffin. […] The anti-collagen I antibody is detected and amplified by ImmPress kit (Vector Laboratories, Cat. No: MP-7401). The immunostained sections are then scanned (Nanozoomer 2.0HT, Hamamatsu) before quantification by image analysis (CaloPix software, TRIBVN Healthcare). Data are expressed as percentage collagen I area per area of lung tissue.
Values for all mice from the same group are averaged. Data are expressed as mean±sem and are compared with a one-way ANOVA followed by Dunnett multiple comparison post hoc test. […]
Manganese superoxide dismutase (MnSOD), located in mitochondria, catalyzes the conversion of superoxide into H2O2, and is a marker of antioxidant response induced by oxidative stress. MnSOD expression is measured immunohistochemically following a protocol adapted from Inghilleri et al. (Inghilleri et al., 2006).
At sacrifice on Day 14, the lungs are collected and fixed in 4% formaldehyde for 24 h before embedding in paraffin. […] The anti-MnSOD antibody is detected by an anti-rabbit biotinylated antibody (Vector Laboratories, Cat. No: BA-1100) amplified by avidin-biotin peroxidase (Vector Laboratories, Cat. No: PK-6100). […] The immunostained sections counterstained with Gill's hematoxylin are then scanned (Nanozoomer 2.0HT, Hamamatsu) before quantification by image analysis (CaloPix software, TRIBVN Healthcare). Data are expressed as percentage MnSOD stained area per area of lung tissue.

[2] = test system: C57BL/6N male mice, bleomycin induced pulmonary fibrosis; assay: Therapeutic bleomycin induced pulmonary fibrosis 21-day mice model; conditions: individual animals, BLM, nintedanib 60 mg/kg QD PO D7-D21
Procedure: The aim of the study is to test the efficacy of a test compound at three different doses in a 21-day model of bleomycin induced pulmonary fibrosis in mice.
11 week-old C57BL/6N male mice from Charles River (Italy) are maintained on 12 h light/dark cycle at 22° C. with ad libidum access to tap water and food.
On day 0, all mice in groups 2-4 receive a 1.5 U/kg oropharyngeal administration of bleomycin (BLM) to induce pulmonary fibrosis Animals in group 1 are not administered bleomycin, but instead receive a single dose of saline via the oropharyngeal route, and are considered sham control mice.
Animals are examined clinically twice daily. List of clinical signs and parameters are indicated in humane endpoints table. Animals are weighed daily starting from DO.
On day 21, lung functionality is determined. After deep anesthesia induced by an intraperitoneal injection (10 mL/kg) of a solution of xylazine (5 mg/kg) and ketamine (75 mg/kg), the trachea is exposed through midline incision and a cannula is inserted. Mice are ventilated with a tidal volume of 10 mL/kg at a frequency of 150 breaths/minute. FlexiVent (SCIREQ®) perturbations are performed three times. Deep Inflation and Pressure-Volume loops (PV loops) with stepwise increasing pressure are performed to measure the Inspiratory Capacity and stepwise pressure-driven perturbation (PVs-P). PV loops between 0 and 30 cm H2O are generated to obtain Total Lung Capacity (A). A snapshot perturbation maneuver is imposed, which is a threefold sinusoidal wave of in- and expiration controlled by the ventilator, resulting in resistance (Rrs), compliance (Crs), and elastance (Ers) of the whole respiratory system (airways, lung and chest wall). A value for each group is calculated with average FlexiVent-validated measurements recorded in each individual subject.
Then, two hours after the last dose of test substance and nintedanib, mice are sacrificed by anesthetic overdose. The lungs are excised and weighed individually. The lungs are then placed into marked bottles containing 10% buffered formalin for further histopathological evaluation.
Body weight data and lung weight data are processed using MS Excel. Statistical analysis and graphical presentation are performed using GraphPad Prism software (version 5.04).
For histopathological evaluation, whole lungs are embedded in paraffin and stained with Mallory's trichrome.
Pulmonary histological changes are assessed using Matsuse's modification of Ashcroft score (Ashcroft et al., 1988; Matsuse et al., 1999). Statistical analysis and graphical presentation is performed using GraphPad Prism software (version 5.04). Mann-Whitney test is employed.
Differences between groups are considered statistically significant when p<0.05.

[3] = test system: male C57BL/6 mice fed a Methionine and Choline-deficient (MCD) diet; assay: MCD model (methionine and choline deficient diet, NASH); conditions: individual animals, 30 mg/kg q.d. p.o., MCD diet 8 wk
Procedure: The methionine and choline deficient (MCD) diet model is used to produce a severe phenotype of NASH in […] (Santhekadur et al., 2017), and is used to evaluate the compounds of the invention.
At induction, 8 weeks-old male C57BL/6 mice (Janvier Labs, France) maintained at 22° C.±2° C. and humidity at 55%±10%, with a 12-hrs dark/light cycle are fed a standard diet (chow (A04C-10, Safe, France) or a Methionine and Choline-deficient (MCD) diet (EFTD.90262, Ssniff, Soest, Germany) for 8 weeks. All animals have access to filtered tap drinking water.
Four weeks after the induction, the animals are either assigned to a control-group or a test-group.
Test group animals are dosed with the a test compound, i.e. Compound A (CpdA) or Compound B (CpdB), at 30 mg/kg, q.d., p.o. formulated in methylcellulose 0.5%, 1 equivalent HCl. The control groups receives a similar volume of vehicle (10 mL/kg), i.e. the standard diet for control group 1 (C1) and the MCD diet for control group 2 (C2). Mice are randomly assigned to a treatment group according to their body weight in order to ensure a homogenous reparation.
After sacrifice (week 8), the activity of the test compound on the development of NASH is assessed by plasma ALT and AST levels and in liver by histopathological examination of fibrosis and steatosis (Sirius red, Oil Red O), collagen (OH-Pro) and triglycerides content and expression of fibrotic and inflammatory genes.
In addition, the NAS score is determined to further evaluate the compounds with respect to their effect on diet induced NASH. The nonalcoholic fatty liver disease activity scoring (NAS) has been proposed and accepted as a tool to measure changes in NAFLD during therapeutic trials (Brunt et al., 2011; Kleiner et al., 2005).
The NAS score (0-8) is defined as the sum of the steatosis score (0-3), lobular inflammation score (0-3), ballooning score (0-2). A NAS score of ≥5 is indicative of a NASH diagnostic.

[4] = test system: male C57BL/6 mice fed CDAHF diet; assay: CDAHFD model (choline-deficient, L-amino acid-defined, high-fat diet); conditions: individual animals, CDAHFD 10W, 30 mg/kg q.d. p.o.

COC(=O)c1ccc2c(c1)NC(=O)/C2=C(\Nc1ccc(N(C)C(=O)CN2CCN(C)CC2)cc1)c1ccccc1 [nintedanib] was tested, and the “Type I collagen stained area fraction” value ([1]; Figure 15) was 10.5% (2×) and 7.6% and 7.1% and 6.5% and 11.0% and 8.2% and 9.3% and 8.9% and 13.7%, the “MnSOD stained area fraction” value ([1]; Figure 16) was 1.19% and 0.75% and 0.25% and 0.50% and 0.79% and 0.62% and 0.69% and 0.92% and 0.53% and 1.11% and the “Compliance of the Respiratory System” value ([2]; Figure 14 panel B) was 0.039 mL/cmH2O (2×) and 0.031 mL/cmH2O and 0.032 mL/cmH2O (2×) and 0.040 mL/cmH2O and 0.027 mL/cmH2O (3×) and 0.034 mL/cmH2O and 0.035 mL/cmH2O and 0.045 mL/cmH2O and 0.015 mL/cmH2O. For the same compound, the “Elastance of the Respiratory System” value ([2]; Figure 14 panel C) was 25.83 cmH2O/mL and 32.61 cmH2O/mL and 31.04 cmH2O/mL and 25.16 cmH2O/mL and 37.06 cmH2O/mL and 36.60 cmH2O/mL and 31.06 cmH2O/mL and 29.07 cmH2O/mL and 37.31 cmH2O/mL and 28.26 cmH2O/mL and 25.68 cmH2O/mL and 22.39 cmH2O/mL and 68.28 cmH2O/mL, the “Ashcroft Score” value ([2]; Matsuse's modification, Figure 13) was 2.0 and 2.3 and 2.8 and 3.2 and 3.7 (2×) and 3.5 (4×) and 3.0 (2×) and 3.4 and 2.5 and 2.4 and the “Inspiratory Capacity” value ([2]; day 21 FlexiVent, Figure 14 panel A) was 0.69 mL and 0.57 mL and 0.62 mL and 0.71 mL and 0.48 mL and 0.58 mL and 0.68 mL and 0.53 mL and 0.56 mL and 0.76 mL and 0.78 mL and 0.33 mL.

In the case of Cc1c2n(c(OC[C@@H]3COCCO3)cc1=O)CCc1cc(OCC(F)(F)F)ccc1-2 [Compound B, 4-[[(2S)-1,4-dioxan-2-yl]methoxy]-1-methyl-9-(2,2,2-trifluoroethoxy)-6,7-dihydrobenzo[a]quinolizin-2-one], the “TIMP1 NRQ gene expression” value ([3]; NRQ scaled versus disease, Fig 8 Panel B) is reported as 0.3 (3×) and 0.4 (2×) and 0.5 and 1.7 (2×) and 1.2 and 1.4, the “Col1a NRQ gene expression” value ([3]; dosing from week 4, Normalised Relative Quantity scaled versus disease, FIG. 8 Panel A) is reported as 0.5 and 2.0 and 1.3 and 1.5 (2×) and 0.4 and 0.3 (2×) and 0.2 (2×) and the “TNfα NRQ gene expression” value ([3]; liver, NRQ scaled versus disease, Fig 9 Panel A) is reported as 0.4 (2×) and 0.7 and 1.1 (2×) and 0.8 and 0.9 and 0.6 and 0.3 (2×). The “CC12 NRQ gene expression” value ([3]; liver, NRQ scaled versus disease, Fig 9 Panel B) was 0.8 and 0.3 and 0.7 (2×) and 1.2 (2×) and 0.9 (2×) and 1.5 and 0.5 and the NAS scoring data ([3]; total NAS score (0-8), Fig 10) was 5.0 and 7.0 (2×) and 6.0 (7×).

In the case of CSc1ccc(C(=O)/C=C/c2cc(C)c(OC(C)(C)C(=O)O)c(C)c2)cc1 [CpdC, elafibranor, reference compound], the “Col1a1 expression profiles (NRQ-scaled versus Disease-Vehicle)” value ([4]; Fig 12 panel A) is reported as 0.07 and 0.06 and 0.48 and 0.15 and 0.09 and 0.43 and 0.61 and 0.17, the “TNFα expression profiles (NRQ-scaled versus Disease-Vehicle)” value ([4]; Figure 12 panel B) is reported as 0.45 and 0.19 and 0.41 and 0.75 and 0.55 and 0.32 (2×) and 0.26 and 0.52 and the “Fibrosis (Sirius red area %)” value ([4]; liver, Figure 11) is reported as 0.45% and 0.19% and 0.41% and 0.75% and 0.55% and 0.32% (2×) and 0.26% and 0.52%.
